Source: patent publication US20260306490A1, “PIM1 INHIBITOR FOR TREATING MYELOPROLIFERATIVE NEOPLASMS” (Sumitomo Pharma America, Inc., priority 2022, published 2026)

Key:
[1] = test system: human erythroid progenitors (CFU-E, BFU-E); assay: Colony forming cell assay, human erythroid progenitor (CFU-E, BFU-E) proliferation; format: cell-based; settings: 336 h, single agent, 14 days, CFU-E and BFU-E
Description: (§1) Clonogenic progenitors of human erythroid (CFU-E, BFU-E), granulocyte-monocyte (CFU-GM), and multipotential (CFU-GEMM) lineages were assessed in a semi-solid methylcellulose-based media formulation containing rhIL-3 (10 ng/mL), rhGM-SCF (10 ng/mL), rhSCF (50 ng/mL), and Epo (3 U/mL).
(§2) In addition, 5-FU was evaluated at 1.0, 0.1 and 0.01 μg/mL as a positive control for toxicity.
(§3) Normal human bone marrow light density cells (lot #0210901), derived from normal bone marrow, (Lonza, Maryland) and qualified at ReachBio, were stored at −152° C. until required for the assay. On the day of the experiment, the cells were thawed rapidly, diluted in 10 mL of Iscove's modified Dulbecco's medium containing 10% fetal bovine serum (IMDM+10% FBS) and washed by centrifugation (approximately 1500 r.p.m. for 10 minutes at room temperature). The supernatant was discarded and the cell pellets were resuspended in a known volume of IMDM+10% FBS. A cell count (3% glacial acetic acid) and viability assessment (trypan blue exclusion test) was performed for the bone marrow sample.
Clonogenic progenitors of human megakaryocyte (CFU-Mk) were assessed in a collagen-based media formulation containing rhIL-3 (10 ng/mL), rhIL-6 (10 ng/mL), and Tpo (50 ng/mL). Clonogenic progenitors of the human erythroid (CFU-E and BFU-E), myeloid (CFU-GM), and megakaryocyte (CFU-Mk) lineages were set up in the media formulations described above. Individually, the test compounds were added to the medium to give the final desired concentrations (10, 3.33, 1, 0.333, 0.1, 0.0333, 0.01 and 0.00333 μM). […]
Human myeloid and erythroid progenitor assays were initiated at 1.2×10^4 cells per culture (lot #0210921) and the human megakaryocyte assays were initiated at 1.2×10^5 cells per culture (lot #0210921). Following 14 days in culture, erythroid and myeloid colonies were assessed microscopically in situ and scored by trained personnel. […] The colonies were assessed microscopically and scored by trained personnel and divided into the following categories based on size: CFU-Mk (3-20), CFU-Mk (21-49), and CFU-Mk (≥50).
Statistical analysis: The mean±standard deviation of three replicate cultures was calculated for both erythroid and myeloid progenitors. […]
(§4) Erythroid (CFU-E and BFU-E) and myeloid (CFU-GM) colony enumeration was performed by trained personnel. In addition, the distribution of colony types as well as general colony and cellular morphology was analyzed. The variance in colony number detected in replicate cultures was representative of the historical coefficient of variation for colony enumeration using these types of assays. The number and distribution of colonies detected in the solvent control (0.1% DMSO for single agents) was no different from the standard control (containing no compound and no DMSO). […]

[2] = test system: PIM1; settings: read-out: Preclinical IC50, PIM1; cited from earlier work
[3] = test system: human myeloid progenitors (CFU-GM); assay: Colony forming cell assay, human myeloid (granulocyte-monocyte, CFU-GM) progenitor proliferation; format: cell-based; settings: single agent
Description: as §1, §2, §3
(§5) Clonogenic progenitors of human megakaryocyte (CFU-Mk) were assessed in a collagen-based media formulation containing rhIL-3 (10 ng/mL), rhIL-6 (10 ng/mL), and Tpo (50 ng/mL). Clonogenic progenitors of the human erythroid (CFU-E and BFU-E), myeloid (CFU-GM), and megakaryocyte (CFU-Mk) lineages were set up in the media formulations described above. Individually, the test compounds were added to the medium to give the final desired concentrations (10, 3.33, 1, 0.333, 0.1, 0.0333, 0.01 and 0.00333 μM). […] Solvent control cultures (containing no compound but 0.1% DMSO) as well as standard controls (containing no compound and no DMSO) were also initiated. Once introduced into the matrices, the tubes were vortexed to ensure an equal distribution throughout.
(§6) Human myeloid and erythroid progenitor assays were initiated at 1.2×10^4 cells per culture (lot #0210921) and the human megakaryocyte assays were initiated at 1.2×10^5 cells per culture (lot #0210921). Following 14 days in culture, erythroid and myeloid colonies were assessed microscopically in situ and scored by trained personnel. The colonies were divided into the following categories based on size and morphology: CFU-E, BFU-E, CFU-GM, and CFU-GEMM. The human megakaryocyte cultures were transferred from the 35 mm dishes to labeled glass slides, fixed with methanol/acetone fixative, and then stained with anti-human CD41 antibody and an alkaline phosphate detection system according to manufacturers' instructions. The colonies were assessed microscopically and scored by trained personnel and divided into the following categories based on size: CFU-Mk (3-20), CFU-Mk (21-49), and CFU-Mk (≥50).
(§7) Statistical analysis: The mean±standard deviation of three replicate cultures was calculated for both erythroid and myeloid progenitors. Two-tailed standard t-tests were performed to assess if there was a difference in the number of colonies generated between solvent control and treated cultures. Due to the potential subjectivity of colony enumeration, a p value of less than 0.01 is deemed significant. To calculate the concentration of 50% inhibition of colony growth (IC50) for each compound, a dose response curve was generated plotting the log of the compound concentration versus the percentage of control colony growth using GraphPad Prism 9 software.
as §4

[4] = test system: human megakaryocyte progenitors (CFU-Mk); assay: Colony forming cell assay, human megakaryocyte progenitor (CFU-Mk) proliferation; format: cell-based; settings: Homo sapiens; single agent; read-out: IC50, total CFU-Mk (megakaryocyte progenitor proliferation)
Description: as §2, §3, §5, §6, §7
Other than the test compounds being combined, the only change from the method in Example 1 was a 0.2% DMSO solvent control instead of 0.1% DMSO. The results are provided in FIGS. 2A-4C (FIGS. 2A-2C are human megakaryocytes (CFU-MK), FIGS. 3A-3C are human erythroid (CFU-E, BFU-E), and FIGS. 4A-4C are human granulocyte-monocyte (CFU-GM).

For CC(C)(O)[C@H]1CC[C@H](Nc2ccc3ncc(-c4cccc(C(F)(F)F)c4)n3n2)CC1 [Compound (1)], the IC50 [1] is given as 4250 nM, the IC50 [2] is given as 5 nM and the IC50 ([3]; Homo sapiens, 336 h, 14 days, CFU-GM) is given as 1310 nM. The “concentrations at which myeloid progenitor proliferation was (significantly, additionally) inhibited” value ([3]; vs 0.1% DMSO solvent control, p<0.01) was 1.0 µM and the IC50 [4] was 1560 nM.
